Measurements taken from US7404948B2, “Peptidic conjugates for alopecia prevention and treatment” (Institut Europeen de Biologie Cellulaire, priority 2003, dated 2008).
Non-standard residues stand in square brackets, D forms with d. hPhe = N[C@@H](CCc1ccccc1)C(=O)O

System: anagen-phase mouse vibrissae hair follicles
Experiment: Growth of mouse vibrissae in vitro (hair follicle culture, Philpott technique)
Format: cell-based
Parameters: unit not given here
Conditions: peptide 10^−7 M, A is acetic acid
Excerpt: The Effects of Various Peptides on the Growth of Mouse Vibrissae In Vitro
The growth of the hair shaft of these hair follicles was followed for several days (Day 0 to Day 4). The results are reported in the table below for peptides 1- and 2-described above, for which A is acetic acid.

Substance | growth of the hair shaft (Day 0) | growth of the hair shaft (Day 1) | growth of the hair shaft (Day 2) | growth of the hair shaft (Day 3) | growth of the hair shaft (Day 4)
Ac-Arg-Lys-Asp-Val-HomoPhe-NH2 (Ac-RKDV[hPhe]-NH2; also: acetate salt) [Peptide 2-] | 0.00 | 0.83 | 1.46 | 1.62 | 1.62
A-Arg-Lys-Asp-Val-DHomoPhe-NH2 [Peptide 1-] | 0.00 | 0.90 | 1.38 | 1.86 | 1.87
